This is an account of results in PMC8878324, “Evaluation of New Antimicrobial Agents Based on tris(1H-Indol-3-yl)methylium Salts: Activity, Toxicity, Suppression of Experimental Sepsis in Mice” (Pharmaceuticals, 2022).

The test system of one test is Gram-positive bacteria. The experiment in a line: MIC against Gram-positive bacteria. The format is cell-based. How it is done: (§1) We have tested the antimicrobial activity in vitro of over 100 tris(indolyl)methane derivatives against 16 strains of Gram-positive, Gram-negative bacteria and fungi including either sensitive or drug-resistant strains from ATCC, as well as resistant clinical isolates from the culture collection of the Laboratory for Control of Hospital Infections (Sechenov University, Moscow, Russia). The minimum inhibitory concentrations (MICs) were determined by the microdilution method in a cation-adjusted Müller–Hinton medium for bacteria and in a liquid culture medium RPMI 1640 with L-glutamine without sodium bicarbonate for fungi in accordance with the requirements of the Institute of Clinical and Laboratory Standards (CLSI/NCCLS). […] As a rule, their activity against Gram-negative bacteria was usually not that high. […] For comparison, the antimicrobial activity of prototype 4 is shown. The antibacterial antibiotic levofloxacin and the antifungal amphotericin B were used as reference drugs (Table 1).
(§2) The minimum inhibitory concentrations (MIC) for Gram-positive and Gram-negative bacteria were determined by two-fold serial microdilution method in a cation-adjusted Müller–Hinton medium for bacteria and in a liquid culture medium RPMI 1640 with L-glutamine without sodium bicarbonate for fungi in accordance with the requirements of the Institute of Clinical and Laboratory Standards (CLSI/NCCLS). The antibacterial antibiotic levofloxacin and the antifungal antibiotic amphotericin B from Sigma-Aldrich were used as reference drugs.

In test [1] the test system is yeast (Candida albicans) and fungi (Aspergillus niger). Description: Antifungal activity. The format is cell-based. The following applies: for antifungal activity: in words. How it is done:
as §1, §2

Read-outs that look alike come from different tables or passages of the source.

Regarding `OCCCCCn1cc([C+](c2cn(CCCCCO)c3ccccc23)c2cn(CCCCCO)c3ccccc23)c2ccccc21.[Cl-]` [Compound 1, tris(1-(5-Hydroxypentyl)-1H-indol-3-yl) methylium chloride], the MIC with Gram-positive bacteria (read-out: MIC) came out at 2 µg/mL. In test [1], the antifungal activity result was “no antifungal activity at all”. Take `CCCn1cc([C+](c2cn(CCC)c3ccccc23)c2cn(C3=C(N)C(=O)NC3=O)c3ccccc23)c2ccccc21.[Cl-]` [Compound 2, (1-(4-Amino-2,5-dioxo-2,5-dihydro-1H-pyrrol-3-yl)-1H-indol-3-yl)bis(1-propyl-1H-indol-3-yl) methylium chloride]: the antifungal activity result in test [1] was “low antifungal activity”. On to `CCCn1cc([C+](c2cn(CCC)c3ccccc23)c2cn(C3=C(N(C)C)C(=O)NC3=O)c3ccccc23)c2ccccc21` [Compound 3, 1-(4-Dimethylamino-2,5-dioxo-2,5-dihydro-1H-pyrrol-3-yl) -1H-indol-3-yl) bis(1-propyl-1H-indol-3-yl) methylium chloride], for which the MIC against Gram-positive bacteria came to 0.13 µg/mL; in test [1] (Candida albicans and Aspergillus niger) it was 2 µg/mL.

As usually defined, the MIC is the smallest concentration in the dilution series that meets the test's criterion for growth inhibition.
